Source: US20220061324A1, “PESTICIDALLY ACTIVE HETEROCYCLIC DERIVATIVES WITH SULFUR CONTAINING SUBSTITUENTS” (SYNGENTA CROP PROTECTION AG, priority 2018, published 2022)
Read-outs that look alike come from different tables or passages of the source.

Key:
Format in all cases: in vivo
[1] = tested on: Plutella xylostella (Diamond Back Moth); assay: Activity against Plutella xylostella (diamond back moth), artificial diet; settings: 192 h, read-out: effect in at least one of the two categories (mortality or growth inhibition); for percent effect (mortality or growth inhibition) at 200 ppm: application rate 200 ppm, eggs, 8 days after infestation
Method: Example B3: Activity Against Plutella xylostella (Diamond Back Moth)
24-well microtiter plates with artificial diet were treated with aqueous test solutions prepared from 10,000 ppm DMSO stock solutions by pipetting. After drying, Plutella eggs were pipetted through a plastic stencil onto a gel blotting paper and the plate was closed with it. The samples were assessed for mortality and growth inhibition in comparison to untreated samples 8 days after infestation.

[2] = tested on: Diabrotica balteata (Corn Root Worm); assay: Activity against Diabrotica balteata (corn root worm), maize sprouts sprayed; settings: 96 h, read-out: effect in at least one of the two categories (mortality or growth inhibition); for percent effect (mortality or growth inhibition) at 200 ppm: application rate 200 ppm, L2 larvae, 4 days after infestation
Method: Example B1: Activity Against Diabrotica balteata (Corn Root Worm)
Maize sprouts placed onto an agar layer in 24-well microtiter plates were treated with aqueous test solutions prepared from 10,000 ppm DMSO stock solutions by spraying. After drying, the plates were infested with L2 larvae (6 to 10 per well). The samples were assessed for mortality and growth inhibition in comparison to untreated samples 4 days after infestation.

[3] = tested on: Spodoptera littoralis (Egyptian Cotton Leaf Worm); assay: Activity against Spodoptera littoralis (Egyptian cotton leaf worm), cotton leaf discs; settings: foliar, 72 h, read-out: control (mortality, anti-feedant effect or growth inhibition)
Method: Example B5: Activity Against Spodoptera littoralis (Egyptian Cotton Leaf Worm)
Cotton leaf discs were placed onto agar in 24-well microtiter plates and sprayed with aqueous test solutions prepared from 10,000 ppm DMSO stock solutions. After drying the leaf discs were infested with five L1 larvae. The samples were assessed for mortality, anti-feeding effect, and growth inhibition in comparison to untreated samples 3 days after infestation. Control of Spodoptera littoralis by a test sample is given when at least one of the categories mortality, anti-feedant effect, and growth inhibition is higher than the untreated sample.

[4] = tested on: Myzus persicae (Green Peach Aphid); assay: Activity against Myzus persicae (green peach aphid), feeding/contact activity; settings: 144 h
Method: Example B4: Activity Against Myzus persicae (Green Peach Aphid) Feeding/Contact Activity
Sunflower leaf discs were placed onto agar in a 24-well microtiter plate and sprayed with aqueous test solutions prepared from 10,000 ppm DMSO stock solutions. After drying, the leaf discs were infested with an aphid population of mixed ages. The samples were assessed for mortality 6 days after infestation.

[5] = application rate 200 ppm, L1 larvae, 3 days after infestation
[6] = application rate 200 ppm, feeding/contact, mixed ages, 6 days after infestation, read-out: mortality

| Compound | percent effect (mortality or growth inhibition) at 200 ppm [1] [%] | percent effect (mortality or growth inhibition) at 200 ppm [2] [%] | percent control (mortality, anti-feedant effect or growth inhibition) at 200 ppm [3, 5] [%] | mortality at 200 ppm [4, 6] [%] | percent control (mortality or growth inhibition) at 200 ppm [1] [%] | percent control (mortality or growth inhibition) at 200 ppm [2] [%] | mortality at 200 ppm [4] [%] | percent control (mortality, anti-feedant effect or growth inhibition) at 200 ppm [3] [%] |
| --- | --- | --- | --- | --- | --- | --- | --- | --- |
| CCSc1cc(C2(C#N)CC2)cnc1-c1ncc2c(OCC(F)(F)C(F)(F)F)cccn12 [Compound P53, 1-[5-ethylsulfanyl-6-[8-(2,2,3,3,3-penta-fluoropropxoy)imidazo [1,5-a]pyridin-3-yl]-3-pyridyl]cyclopropane-carbonitrile] | ≥ 80 | ≥ 80 | – | – | – | – | – | – |
| CCS(=O)(=O)c1ccc(N(C)C(=O)NC)nc1-c1ncc2c(OCC(F)(F)C(F)(F)F)nccn12 [Compound P14, 1-[5-ethylsulfonyl-6-[8-(2,2,3,3,3-penta-fluoropropoxy)imidazo [1,5-a]pyrazin-3-yl]-2-pyridyl]-1,3-dimethyl-urea] | ≥ 80 | ≥ 80 | ≥ 80 | ≥ 80 | – | – | – | – |
| CCS(=N)(=O)c1cc(OC(C)(C)C#N)cnc1-c1ncc2c(OCC(F)(F)C(F)(F)F)cccn12 (centres unmarked) [Compound P49, 2-[[5-(ethylsulfonimidoyl)-6-[8-(2,2,3,3,3-penta-fluoropropoxy)imidazo [1,5-a]pyridin-3-yl]-3-pyridyl]oxy]-2-methyl-propanenitrile] | ≥ 80 | ≥ 80 | – | – | – | – | – | – |
| CCSc1cccnc1-c1ncc2c(OCC(F)(F)C(F)(F)F)nccn12 [Compound P7, 3-(3-ethylsulfanyl-2-pyridyl)-8-(2,2,3,3,3-pentafluoropropoxy)imi-dazo[1,5-a]pyrazine] | – | – | – | – | ≥ 80 | ≥ 80 | ≥ 80 | – |
| CCSc1cc(N(C)C(C)=O)cnc1-c1ncc2c(OCC(F)(F)C(F)(F)F)cccn12 [Compound P41, N-[5-ethylsulfanyl-6-[8-(2,2,3,3,3-penta-fluoropropoxy)imidazo [1,5-a]pyridin-3-yl]-3-pyridyl]-N-methyl-acetamide] | ≥ 80 | – | – | – | – | – | – | – |
| CCS(=O)(=O)c1cccnc1-c1ncc2c(OCC(F)(F)C(F)F)nccn12 [Compound P6, 3-(3-ethylsulfonyl-2-pyridyl)-8-(2,2,3,3-tetrafluoropropoxy)imi-dazo[1,5-a]pyrazine] | – | – | – | – | ≥ 80 | ≥ 80 | ≥ 80 | ≥ 80 |
| CCSc1cc(C2CC2)cnc1-c1ncc2c(OCC(F)(F)C(F)(F)F)nccn12 [Compound P22, 3-(5-cyclopropyl-3-ethylsulfanyl-2-pyridyl)-8-(2,2,3,3,3-penta-fluoropropoxy)imidazo [1,5-a]pyrazine] | ≥ 80 | ≥ 80 | ≥ 80 | – | – | – | – | – |
| CCS(=O)(=O)c1cc(C(C)(C)C#N)cnc1-c1ncc2c(OCC(F)(F)C(F)(F)F)nccn12 [Compound P16, 2-[5-ethylsulfonyl-6-[8-(2,2,3,3,3-penta-fluoropropoxy)imidazo [1,5-a]pyrazin-3-yl]-3-pyridyl]-2-methyl-propanenitrile] | ≥ 80 | ≥ 80 | ≥ 80 | ≥ 80 | – | – | – | – |
| CCS(=O)(=O)c1cc(C2CC2)cnc1-c1ncc2c(OCC(F)(F)C(F)(F)F)cccn12 [Compound P40, 3-(5-cyclopropyl-3-ethylsulfonyl-2-pyridyl)-8-(2,2,3,3,3-penta-fluoropropoxy)imidazo [1,5-a]pyridine] | ≥ 80 | ≥ 80 | – | ≥ 80 | – | – | – | – |
| CCSc1cccnc1-c1ncc2c(OCC(F)(F)C(F)F)nccn12 [Compound P5] | – | – | – | – | ≥ 80 | ≥ 80 | ≥ 80 | ≥ 80 |
| CCS(=O)(=O)c1cc(Br)cnc1-c1ncc2c(OCC(F)(F)C(F)(F)F)nccn12 [Compound P4, 3-(5-bromo-3-ethylsulfonyl-2-pyridyl)-8-(2,2,3,3,3-pentafluoropropoxy)imi-dazo[1,5-a]pyrazine] | – | – | – | – | ≥ 80 | ≥ 80 | ≥ 80 | ≥ 80 |
| CCS(=O)(=O)c1cc(Br)cnc1-c1ncc2c(OCC(F)(F)C(F)(F)F)cccn12 [Compound P43, 3-(5-bromo-3-ethylsulfonyl-2-pyridyl)-8-(2,2,3,3,3-pentafluoropropoxy)imi-dazo[1,5-a]pyridine] | – | – | – | – | ≥ 80 | ≥ 80 | – | – |
| CCS(=O)(=O)c1ccc(NC)nc1-c1ncc2c(OCC(F)(F)C(F)(F)F)cccn12 [Compound P31, 5-ethylsulfonyl-N-methyl-6-[8-(2,2,3,3,3-penta-fluoropropoxy)imidazo [1,5-a]pyridin-3-yl]pyri-din-2-amine] | ≥ 80 | ≥ 80 | ≥ 80 | ≥ 80 | – | – | – | – |
| CCS(=O)(=O)c1ccc(NC(=O)NC)nc1-c1ncc2c(OCC(F)(F)C(F)(F)F)nccn12 [Compound P9, 1-[5-ethylsulfonyl-6-[8-(2,2,3,3,3-penta-fluoropropoxy)imidazo [1,5-a]pyrazin-3-yl]-2-pyridyl]-3-methyl-urea] | ≥ 80 | ≥ 80 | – | – | – | – | – | – |
| CCSc1cc(Oc2ccccn2)cnc1-c1ncc2c(OCC(F)(F)C(F)(F)F)nccn12 [Compound P20, 3-[3-ethylsulfanyl-5-(2-pyridyloxy)-2-pyridyl]-8-(2,2,3,3,3-penta-fluoropropoxy)imidazo [1,5-a]pyrazine] | ≥ 80 | ≥ 80 | ≥ 80 | – | – | – | – | – |
| CCSc1cc(C2CC2)cnc1-c1ncc2c(OCC(F)(F)C(F)(F)F)cccn12 [Compound P42, 3-(5-cyclopropyl-3-ethylsulfanyl-2-pyridyl)-8-(2,2,3,3,3-penta-fluoropropoxy)imidazo [1,5-a]pyridine] | ≥ 80 | ≥ 80 | – | – | – | – | – | – |
| CCS(=O)(=O)c1ccc(N(C)C(=O)C2CC2)nc1-c1ncc2c(OCC(F)(F)C(F)(F)F)cccn12 [Compound P38, N-[5-ethylsulfonyl-6-[8-(2,2,3,3,3-penta-fluoropropoxy)imidazo [1,5-a]pyridin-3-yl]-2-pyridyl]-N-methyl-cyclopropanecarboxamide] | ≥ 80 | ≥ 80 | ≥ 80 | – | – | – | – | – |
| CCSc1cc(C(C)(C)C#N)cnc1-c1ncc2c(OCC(F)(F)C(F)(F)F)cccn12 [Compound P46, 2-[5-ethylsulfanyl-6-[8-(2,2,3,3,3-penta-fluoropropoxy)imidazo [1,5-a]pyridin-3-yl]-3-pyridyl]-2-methyl-propanenitrile] | ≥ 80 | – | – | – | – | – | – | – |
| CCS(=O)(=O)c1ccc(-n2cncn2)nc1-c1ncc2c(OCC(F)(F)C(F)(F)F)cccn12 [Compound P33, 3-[3-ethylsulfonyl-6-(1,2,4-triazol-1-yl)-2-pyridyl]-8-(2,2,3,3,3-pentafluoropropoxy)imi dazo[1,5-a]pyri-dine] | – | – | – | – | ≥ 80 | ≥ 80 | – | ≥ 80 |
| CCS(=O)(=O)c1ccc(Cl)nc1-c1ncc2c(OCC(F)(F)C(F)(F)F)cccn12 [Compound P30, 3-(6-chloro-3-ethylsulfonyl-2-pyridyl)-8-(2,2,3,3,3-pentafluoropropoxy)imi-dazo[1,5-a]pyridine] | – | – | – | – | ≥ 80 | – | – | ≥ 80 |
| CCS(=O)(=O)c1ccc(N(C)C(C)=O)nc1-c1ncc2c(OCC(F)(F)C(F)(F)F)cccn12 [Compound P37, N-[5-ethylsulfonyl-6-[8-(2,2,3,3,3-penta-fluoropropoxy)imidazo [1,5-a]pyridin-3-yl]-2-pyridyl]-N-methyl-acetamide] | ≥ 80 | ≥ 80 | – | ≥ 80 | – | – | – | – |
